One experiment has as its target Serine protease 1 (Homo sapiens, UniProt P07477).
The target of experiment [1] is T1, Plasminogen (Homo sapiens, UniProt P00747). The experiment in a line: In vitro inhibitory activity was evaluated against thrombolytic enzyme plasmin; Inactive.
The target of experiment [2] is T2, Coagulation factor X (Homo sapiens, UniProt P00742). The experiment is described as follows: In vitro inhibitory activity was evaluated against thrombin factor Xa (FXa); Inactive.
Experiment [3] in a line: Ratio of thrombin factor Xa (FXa) to thrombin (FIIa) was evaluated; Very high.
A further experiment concerns the target Prothrombin (Homo sapiens, UniProt P00734). The experiment in a line: In vitro inhibitory activity was evaluated against thrombin (FIIa).
The nature of experiment [4]: Ratio of thrombolytic enzyme plasmin to thrombin (FIIa) was evaluated.
Experiment [5] concerns the target T1, Plasminogen. The experiment in a line: In vitro inhibitory activity was evaluated against thrombolytic enzyme plasmin.
The target in experiment [6] is T2, Coagulation factor X.

A value given as a limit tells only on which side of the number the result lay.

The record followed here is ChEMBL document CHEMBL1130963, “Design and construction of novel thrombin inhibitors featuring P3-P4 quaternary lactam dipeptide surrogates” (Bioorg Med Chem Lett, 1998).

The IC50 is the point on the concentration scale where inhibition reaches its midpoint.

Serine protease 1, sequence (P07477 whole entry): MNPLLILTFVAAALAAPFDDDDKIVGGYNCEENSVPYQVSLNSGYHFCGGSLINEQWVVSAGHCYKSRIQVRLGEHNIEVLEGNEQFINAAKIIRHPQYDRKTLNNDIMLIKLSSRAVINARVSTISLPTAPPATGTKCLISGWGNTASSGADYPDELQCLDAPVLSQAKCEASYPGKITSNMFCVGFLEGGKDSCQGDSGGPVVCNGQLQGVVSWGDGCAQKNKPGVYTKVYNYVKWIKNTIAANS
T1 sequence (P00747 97-580 limits assumed): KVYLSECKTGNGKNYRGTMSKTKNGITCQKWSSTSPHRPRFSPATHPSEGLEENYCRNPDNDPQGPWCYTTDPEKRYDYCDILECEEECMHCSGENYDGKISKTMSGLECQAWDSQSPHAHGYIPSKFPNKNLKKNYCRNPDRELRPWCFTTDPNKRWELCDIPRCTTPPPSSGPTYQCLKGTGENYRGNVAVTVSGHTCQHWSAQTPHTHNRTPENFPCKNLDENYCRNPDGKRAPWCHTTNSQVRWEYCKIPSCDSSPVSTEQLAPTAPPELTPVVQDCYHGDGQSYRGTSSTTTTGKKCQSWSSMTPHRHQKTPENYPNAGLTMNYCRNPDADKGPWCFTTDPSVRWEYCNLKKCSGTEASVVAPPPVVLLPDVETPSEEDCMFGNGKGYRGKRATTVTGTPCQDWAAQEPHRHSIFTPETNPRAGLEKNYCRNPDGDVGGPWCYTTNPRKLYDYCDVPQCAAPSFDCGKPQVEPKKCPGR
T1 sequence (P00747 581-810 limits assumed): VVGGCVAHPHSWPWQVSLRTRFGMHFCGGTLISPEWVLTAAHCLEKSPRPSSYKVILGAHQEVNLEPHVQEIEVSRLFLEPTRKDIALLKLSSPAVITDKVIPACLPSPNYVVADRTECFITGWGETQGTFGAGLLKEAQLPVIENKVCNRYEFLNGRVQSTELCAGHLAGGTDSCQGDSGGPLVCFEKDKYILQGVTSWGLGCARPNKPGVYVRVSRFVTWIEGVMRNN
T2 sequence (P00742 41-179 limits assumed): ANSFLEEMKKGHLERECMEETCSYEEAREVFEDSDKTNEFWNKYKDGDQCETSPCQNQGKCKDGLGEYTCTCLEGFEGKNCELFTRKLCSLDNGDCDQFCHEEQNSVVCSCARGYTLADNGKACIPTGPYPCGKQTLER
T2 sequence (P00742 235-488 limits assumed): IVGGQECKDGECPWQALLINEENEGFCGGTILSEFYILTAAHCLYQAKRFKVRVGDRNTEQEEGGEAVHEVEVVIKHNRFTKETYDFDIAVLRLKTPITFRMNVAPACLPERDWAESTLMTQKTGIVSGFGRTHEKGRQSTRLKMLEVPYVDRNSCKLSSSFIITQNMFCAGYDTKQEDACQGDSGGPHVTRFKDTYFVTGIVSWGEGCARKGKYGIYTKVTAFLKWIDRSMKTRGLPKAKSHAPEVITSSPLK

In the case of `N=C(N)N1CCC[C@H](NC(=O)CN2CCC[C@@](N)(Cc3ccccc3)C2=O)[C@H]1O`, the IC50 against Serine protease 1 was 139 nM; at Plasminogen [1], “Not Active”; on Coagulation factor X [2], “Not Active”; at Prothrombin, 2.07 nM. The Ratio entry in experiment [3] was “Very high”; in experiment [4], 67.1.

With `N=C(N)N1CCC[C@H](NC(=O)CN2CCC[C@H](NS(=O)(=O)Cc3ccccc3)C2=O)C1O` (stereo partly drawn), the IC50 on Plasminogen [5] was over 2500 nM. Further, the Ratio in experiment [4] was 128.

For the molecule `CCOC(=O)[C@]1(NS(=O)(=O)Cc2ccccc2)CCCN(CC(=O)N[C@H]2CCCN(C(=N)N)[C@@H]2O)C1=O`, the IC50 on Serine protease 1 came to 2 nM; against Plasminogen [5], 271 nM; at Prothrombin, 1.1 nM; against Coagulation factor X [6], 5.78 nM. For the same molecule, the Ratio in experiment [4] came out at 1.8.

Regarding `N=C(N)N1CCC[C@H](NC(=O)CN2CCC[C@@](N)(Cc3ccccc3)C2=O)[C@@H]1O`, the IC50 at Serine protease 1 was 2500 nM; against Plasminogen [1], “Not Active”; on Coagulation factor X [2], “Not Active”; against Prothrombin, 138 nM. The Ratio in experiment [4] is 18.2.

For the molecule `CCOC(=O)[C@]1(NS(=O)(=O)Cc2ccccc2)CCCN(CC(=O)N[C@H]2CCCN(C(=N)N)[C@H]2O)C1=O`, the IC50 at Serine protease 1 was 202 nM; at Plasminogen [5] it was over 2500 nM; on Prothrombin it was 64.4 nM; at Coagulation factor X [6], 43.2 nM. Besides, in experiment [4], the Ratio turned out to be 3.1.
